The values below come from ChEMBL document CHEMBL4742387, “Condensed tricyclic compounds as protein kinase inhibitors” (2018).

The structures appear in SMILES notation. Active and inactive are the calls of the source. No cut-off for these calls is given here.

In test [1] the test system is SW-620. Kind of test: Synergistic antiproliferative activity against human SW-620 cells assessed as reduction in cell proliferation by measuring combination index in presence of Ali-sertib by MTT assay. The class given is functional. In general terms: Tetrazolium assays rely on reduction of a dye to a coloured formazan, in cell work by metabolically active cells.
Test [2] has as its system SW-620. Kind of test: Synergistic antiproliferative activity against human SW-620 cells assessed as reduction in cell proliferation by measuring combination index in presence of ABT-751 by MTT assay. It counts as functional.
Test [3] concerns BXPC-3. In words: Antiproliferative activity against human BXPC-3 cells assessed as reduction in cell proliferation by CellTiter-Glo luminescent cell viability assay. The class given is functional. For orientation: ATP-based viability assays read luminescence as a measure of living cells.
Test [4] relates to HCT-116. In words: Antiproliferative activity against human HCT-116 cells assessed as reduction in cell proliferation by CellTiter-Glo luminescent cell viability assay. The class given is functional.
Test [5] addresses T1, Cyclin-dependent kinase 8 (Homo sapiens, UniProt P49336). Kind of test: Inhibition of CDK8 in human SW-620 cells assessed as reduction in STAT1 S727 phosphorylation pre-incubated for 1 hr before IFNgamma stimulation for 3 hrs by Western blot analysis. It counts as cell-based. (In general: Immunoblotting shows a protein as a band on a membrane.)
For test [6], the target named is T2, Serine/threonine-protein kinase haspin (Homo sapiens, UniProt Q8TF76).
T2 sequence (Q8TF76 whole entry): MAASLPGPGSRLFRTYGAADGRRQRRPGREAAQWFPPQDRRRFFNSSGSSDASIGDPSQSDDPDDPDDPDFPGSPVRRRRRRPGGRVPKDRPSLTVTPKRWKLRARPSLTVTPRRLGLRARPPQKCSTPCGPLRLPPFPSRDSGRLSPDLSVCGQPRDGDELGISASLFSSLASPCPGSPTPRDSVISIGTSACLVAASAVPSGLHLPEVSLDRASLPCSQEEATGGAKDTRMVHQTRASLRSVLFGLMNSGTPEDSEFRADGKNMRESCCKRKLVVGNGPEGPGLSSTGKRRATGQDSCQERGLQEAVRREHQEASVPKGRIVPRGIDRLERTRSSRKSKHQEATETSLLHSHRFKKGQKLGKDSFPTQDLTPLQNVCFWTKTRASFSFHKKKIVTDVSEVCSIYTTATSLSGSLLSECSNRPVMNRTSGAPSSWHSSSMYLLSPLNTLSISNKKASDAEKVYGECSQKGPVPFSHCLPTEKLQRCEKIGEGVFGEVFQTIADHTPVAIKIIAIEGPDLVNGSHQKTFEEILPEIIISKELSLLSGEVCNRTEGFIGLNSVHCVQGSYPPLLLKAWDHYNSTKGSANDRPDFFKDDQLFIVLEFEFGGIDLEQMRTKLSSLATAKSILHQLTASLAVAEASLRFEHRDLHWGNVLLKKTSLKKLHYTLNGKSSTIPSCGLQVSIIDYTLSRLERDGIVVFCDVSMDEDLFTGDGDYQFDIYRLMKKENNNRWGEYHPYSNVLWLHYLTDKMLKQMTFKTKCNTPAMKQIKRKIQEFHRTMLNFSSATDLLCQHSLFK
In words: Inhibition of haspin in human SW620 cells assessed as reduction in IFNgamma-induced H3T3 phosphorylation pre-incubated for 1 hr before IFNgamma stimulation for 3 hrs by Western blot analysis. It counts as cell-based, SW-620.

Test [7] deals with Mus musculus. In words: Inhibition of CDK8 in athymic nude mouse xenografted with human SW-620 cells assessed as reduction in STAT1 S727 phosphorylation 5 mg/kg, po administered as single dose after 4 hrs by Western blot analysis. It counts as functional, organism-based.
Test [8] relates to HCT-116. In words: Synergistic antiproliferative activity against human HCT-116 cells assessed as reduction in cell proliferation by measuring combination index in presence of Ali-sertib by MTT assay. It counts as functional.
Test [9] concerns MOLM-13. In words: Antiproliferative activity against human MOLM-13 cells assessed as reduction in cell proliferation by CellTiter-Glo luminescent cell viability assay. It counts as functional. As to conditions: Homo sapiens, MOLM-13.
Test [10] relates to DU-145. In words: Synergistic antiproliferative activity against human DU-145 cells assessed as reduction in cell proliferation by measuring combination index in presence of crizotinib by MTT assay. It counts as functional.
The subject of test [11] is HCT-116. In words: Synergistic antiproliferative activity against human HCT-116 cells assessed as reduction in cell proliferation by measuring combination index in presence of taxol by MTT assay. The class given is functional.
For test [12], the system named is SW-620. In words: Induction of apoptosis in human SW-620 cells at 0.5 to 5 uM incubated for 24 hrs by propidium iodide staining based assay. The class given is functional, cell-based. Conditions: dose 0.5-5 µM.
In test [13] the test system is DU-145. Kind of test: Synergistic antiproliferative activity against human DU-145 cells assessed as reduction in cell proliferation by measuring combination index in presence of Taxol by MTT assay. The class given is functional.
The subject of test [14] is DU-145. Kind of test: Antiproliferative activity against human DU-145 cells assessed as reduction in cell proliferation by CellTiter-Glo luminescent cell viability assay. It counts as functional.
The test system of test [15] is BXPC-3. In words: Synergistic antiproliferative activity against human BXPC-3 cells assessed as reduction in cell proliferation by measuring combination index in presence of Elesclomol by MTT assay. The class given is functional.
Test [16] has as its system SW-620. Kind of test: Synergistic antiproliferative activity against human SW-620 cells assessed as reduction in cell proliferation by measuring combination index in presence of Crizotinib by MTT assay. It counts as functional.
Test [17] concerns SW-620. In words: Induction of cell cycle arrest in human SW-620 cells assessed as accumulation at G2M phase at 0.5 to 5 uM incubated for 24 hrs by propidium iodide staining based assay. As to conditions: dose 0.5-5 µM. It counts as functional.
For test [18], the system named is SK-MEL19. Kind of test: Antiproliferative activity against human SK-MEL19 cells assessed as reduction in cell proliferation by CellTiter-Glo luminescent cell viability assay. The class given is functional.
In test [19] the test system is HCT-116. In words: Synergistic antiproliferative activity against human HCT-116 cells assessed as reduction in cell proliferation by measuring combination index in presence of crizotinib by MTT assay. The class given is functional.
The test system of test [20] is MDA-MB-231. Kind of test: Antiproliferative activity against human MDA-MB-231 cells assessed as reduction in cell proliferation by CellTiter-Glo luminescent cell viability assay. The class given is functional. As to conditions: Homo sapiens, MDA-MB-231.
The subject of test [21] is BXPC-3. In words: Synergistic antiproliferative activity against human BXPC-3 cells assessed as reduction in cell proliferation by measuring combination index in presence of crizotinib by MTT assay. It counts as functional.
Test [22] has as its system SW-620. Kind of test: Synergistic antiproliferative activity against human SW-620 cells assessed as reduction in cell proliferation by measuring combination index in presence of oxaliplatin by MTT assay. The class given is functional.
For test [23], the system named is SW-620. In words: Synergistic antiproliferative activity against human SW-620 cells assessed as reduction in cell proliferation by measuring combination index in presence of Elesclomol by MTT assay. The class given is functional.
The subject of test [24] is A549. In words: Synergistic antiproliferative activity against human A549 cells assessed as reduction in cell proliferation by measuring combination index in presence of Elesclomol by MTT assay. It counts as functional.
In test [25] the test system is MDA-MB-231. In words: Synergistic antiproliferative activity against human MDA-MB-231 cells assessed as reduction in cell proliferation by measuring combination index in presence of Elesclomol by MTT assay. The class given is functional.
Test [26] relates to SW-620. Kind of test: Inhibition of colony formation of human SW-620 cells incubated for 11 days (Every 3 days medium is changed by fresh medium and compounds were added freshly) by crystal violet staining based assay. It counts as functional, cell-based.
In test [27] the test system is SK-MEL19. Kind of test: Synergistic antiproliferative activity against human SK-MEL19 cells assessed as reduction in cell proliferation by measuring combination index in presence of Elesclomol by MTT assay. The class given is functional.
For test [28], the target named is T3, Serine/threonine-protein kinase haspin (Homo sapiens) (UniProt Q8TF76).
T3 sequence (whole entry): T2 sequence (Q8TF76 whole entry)
Kind of test: Inhibition of haspin in synchronized human SW620 cells assessed as reduction in IFNgamma-induced H3T3 phosphorylation pre-incubated for 1 hr before IFNgamma stimulation for 3 hrs by Western blot analysis. It counts as cell-based. As to conditions: SW-620, time 4.0 hrs.

For test [29], the system named is SW-620. In words: Antiproliferative activity against human SW-620 cells assessed as reduction in cell proliferation by CellTiter-Glo luminescent cell viability assay. It counts as functional. Conditions: Homo sapiens, SW-620.
Test [30] concerns Mus musculus. In words: Inhibition of CDK8 in athymic nude mouse xenografted with human SW-620 cells assessed as reduction in STAT1 S727 phosphorylation 5 mg/kg, po administered as single dose after 1 hr by Western blot analysis. It counts as functional, organism-based.
For test [31], the system named is DU-145. In words: Synergistic antiproliferative activity against human DU-145 cells assessed as reduction in cell proliferation by measuring combination index in presence of Ali-sertib by MTT assay. The class given is functional.
For test [32], the system named is MV4-11. In words: Antiproliferative activity against human MV4-11 cells assessed as reduction in cell proliferation by CellTiter-Glo luminescent cell viability assay. It counts as functional. Conditions: Homo sapiens, MV4-11.
For test [33], the system named is SW-620. In words: Synergistic antiproliferative activity against human SW-620 cells assessed as reduction in cell proliferation by measuring combination index in presence of taxol by MTT assay. The class given is functional.
Test [34] deals with A549. Kind of test: Antiproliferative activity against human A549 cells assessed as reduction in cell proliferation by CellTiter-Glo luminescent cell viability assay. It counts as functional.
Test [35] deals with SK-MEL19. Kind of test: Synergistic antiproliferative activity against human SK-MEL19 cells assessed as reduction in cell proliferation by measuring combination index in presence of Crizotinib by MTT assay. It counts as functional.
Test [36] deals with T1, Cyclin-dependent kinase 8. Kind of test: Inhibition of CDK8 in human SW-620 cells assessed as reduction in IFNgamma-induced STAT1 S727 phosphorylation pre-incubated for 1 hr before IFNgamma stimulation for 3 hrs by Western blot analysis. The class given is cell-based. As to conditions: time 4.0 hrs.

T1 sequence (P49336 whole entry): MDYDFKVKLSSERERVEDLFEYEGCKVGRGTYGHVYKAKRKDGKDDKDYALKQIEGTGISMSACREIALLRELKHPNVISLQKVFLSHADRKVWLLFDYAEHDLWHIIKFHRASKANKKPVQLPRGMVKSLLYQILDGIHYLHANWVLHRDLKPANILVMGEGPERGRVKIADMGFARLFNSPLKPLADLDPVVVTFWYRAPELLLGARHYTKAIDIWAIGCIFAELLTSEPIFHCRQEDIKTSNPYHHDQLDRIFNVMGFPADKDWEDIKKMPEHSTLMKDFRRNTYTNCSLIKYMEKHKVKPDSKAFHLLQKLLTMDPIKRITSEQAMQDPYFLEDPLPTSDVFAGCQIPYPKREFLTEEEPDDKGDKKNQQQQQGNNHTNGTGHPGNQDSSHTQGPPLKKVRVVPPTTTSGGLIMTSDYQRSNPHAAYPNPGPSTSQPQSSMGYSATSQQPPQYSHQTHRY

One may read the GI50 as the concentration that inhibits growth by half. The IC50 is the point on the concentration scale where inhibition reaches its midpoint. Broadly, the EC50 is the concentration at which the effect is half-maximal. Read a high EC50 as a need for much substance. Turning to `CCn1c(C(N)=O)cc2c1-c1ccncc1OC2(C)C`, the CI in test [1] is on record as 0.52; in test [2], 0.18; in [8] it was 0.64; in test [10], 0.44; in test [11], 0.63; in [13], 0.21. Besides, the CI in test [15] is 0.25; in test [16], 0.65; in test [19], 0.58; in [21] it was 0.72; in test [22] it was 0.53; in test [23] it was 0.05. In addition, the CI in test [24] is 0.63; in test [25], 0.59; in test [27] it was 0.49; in test [31] it was 0.65; in [33] it was 0.28; in [35] it was 0.55. The GI50 was 5 µM in [3]; 5 µM in test [4]; 0.349 µM in test [9]; 5 µM in test [14]; 1.25 µM in [18]; 3.5 µM in [20]. For the same compound, the GI50 in test [29] turned out to be 3.39 µM; in test [32], 0.115 µM; in test [34] it was 5 µM. In addition, the IC50 in test [5] was 0.0015 µM; in [6], 0.0016 µM. Besides, the inhibition result in [7] and in test [30] was “Active” throughout. Further, the Activity entry in test [12] and in test [17] was “Dose-dependent effect” in each case. In addition, a half-maximal effect in test [26] (EC50) was put at 0.051 µM. Moreover, in test [28], the INH was 1.5 10^-8mol/L.
With `C[C@@H](Oc1cc(-c2cnn(C3CCNCC3)c2)cnc1N)c1c(Cl)ccc(F)c1Cl` [CRIZOTINIB], the GI50 in [3] is 5 µM; in test [4] it was 5 µM; in test [14] it was 20 µM; in test [18] it was 5 µM; in [29] it was 1 µM.
On to `COc1ccccc1-c1c2c(n(CCF)c1C(N)=O)-c1ccncc1OC2(C)C`, for which the figures for the INH in [36] and in test [28] were less than 500 nM and 0.5 µM, respectively. In addition, the midpoint of the response in [26], the EC50, lay at 5.43 µM.
Consider `CN(NC(=O)CC(=O)NN(C)C(=S)c1ccccc1)C(=S)c1ccccc1` [ELESCLOMOL], for which the GI50 in test [3] came out at 0.062 µM; in test [18] it was 0.25 µM; in test [20] it was 0.25 µM; in test [29], 0.25 µM; in [34], 0.25 µM.
In the case of `COc1cc(Nc2ncc3c(n2)-c2ccc(Cl)cc2C(c2c(F)cccc2OC)=NC3)ccc1C(=O)O` [ALISERTIB], the GI50 in test [4] was 12.5 µM; in [14] it was 12.5 µM; in [29], 0.5 µM.
As to `CC(=O)O[C@H]1C(=O)[C@@]2(C)[C@H]([C@H](OC(=O)c3ccccc3)[C@]3(O)C[C@H](OC(=O)[C@H](O)[C@@H](NC(=O)c4ccccc4)c4ccccc4)C(C)=C1C3(C)C)[C@]1(OC(C)=O)CO[C@@H]1C[C@@H]2O` [PACLITAXEL], the concentration for 50% growth inhibition (GI50) in [4] and in test [29] was 0.005 µM in each case.
